From ChEMBL document CHEMBL5506050, “Discovery of Oral AMP-Activated Protein Kinase Activators for Treating Hyperlipidemia” (J Med Chem, 2024)
Active and inactive are the calls of the source. The calls are words filed in the database; no cut-off is given here.

Experiments:
[1] = molecular target: AMP-activated protein kinase, AMPK (Homo sapiens) (UniProt P54646+O43741+P54619+Q9UGJ0+Q9Y478+Q13131+Q9UGI9); experiment: Activation of AMPK in human HepG2 cells assessed as decrease in intracellular lipid content at 10 uM incubated for 48 hrs by Oil Red O staining based analysis relative to control; format: cell-based; design: scale not given: the % may be the effect or the level left
[2] = molecular target: AMP-activated protein kinase, AMPK; experiment: Binding affinity to recombinant AMPK (unknown origin)-immobilized in CM5 sensor chip assessed as dissociation constant by SPR analysis; format: protein-complex assay, Homo sapiens
[3] = molecular target: AMP-activated protein kinase, AMPK; experiment: Binding affinity to truncated AMPK (unknown origin) assessed as dissociation constant by CD analysis; format: protein-complex assay, Homo sapiens
[4] = system: Mus musculus; experiment: Lipid lowering effect on high-fat diet-fed C57BL/6J mouse assessed as decrease in serum LDL-C level at 20 mg/kg/day, po administered via gavage measured after 7 days relative to control; format: functional; design: scale not given: the % may be the effect or the level left; conditions: time 7 day
[5] = system: Syrian golden hamster; experiment: Lipid lowering effect on high-fat diet-fed golden hamster assessed as decrease in serum LDL-C level at 50 mg/kg, po qd administered via gavage measured after 4 weeks relative to control; format: functional, Mesocricetus auratus; design: scale not given: the % may be the effect or the level left
[6] = system: Syrian golden hamster; experiment: Lipid lowering effect on high-fat diet-fed golden hamster assessed as decrease in serum LDL-C level at 100 mg/kg, po qd administered via gavage measured after 4 weeks relative to control; format: functional, Mesocricetus auratus; design: scale not given: the % may be the effect or the level left
[7] = system: Syrian golden hamster; experiment: Effect on liver weight in high-fat diet-fed golden hamster at 50 to 200 mg/kg, po qd administered via gavage measured after 4 weeks; format: functional, organism-based; conditions: Mesocricetus auratus, dose 50-200 mg/kg
[8] = system: Syrian golden hamster; experiment: Lipid lowering effect on high-fat diet-fed golden hamster harboring LDLR-/- assessed as decrease in serum LDL-C level at 200 mg/kg, po qd administered via gavage measured after 8 weeks relative to control; format: functional, Mesocricetus auratus; design: scale not given: the % may be the effect or the level left
[9] = system: Syrian golden hamster; experiment: Lipid lowering effect on high-fat diet-fed golden hamster harboring LDLR-/- assessed as decrease in serum TC level at 200 mg/kg, po qd administered via gavage measured after 8 weeks relative to control; format: functional, Mesocricetus auratus; design: scale not given: the % may be the effect or the level left
[10] = system: Rhesus monkey; experiment: Lipid lowering effect in Rhesus monkey assessed as decrease in serum LDL-C level at 35 mg/kg, NG qd treated for 35 days followed by drug washout for 14 days relative to control; format: functional, Macaca mulatta; design: scale not given: the % may be the effect or the level left; conditions: time 35 day
[11] = system: Rhesus monkey; experiment: Lipid lowering effect in Rhesus monkey assessed as decrease in serum LDL-C level at 35 mg/kg, NG qd measured after 7 days; format: functional, organism-based; conditions: Macaca mulatta, time 7.0 day
[12] = species: Homo sapiens; experiment: Downregulation of serum TC level in human at 2000 mg bid for 7 days; format: functional; conditions: time 7.0 day
[13] = system: Mus musculus; experiment: Downregulation of Pparg mRNA level in liver of high-fat diet-fed C57BL/6 mouse model at 200 mg/kg, po for 4 weeks by GO analysis; format: functional, organism-based
[14] = system: Mus musculus; experiment: Downregulation of Dhcr7 mRNA level in liver of high-fat diet-fed C57BL/6 mouse model at 200 mg/kg, po for 4 weeks by GO analysis; format: functional, organism-based
[15] = system: Mus musculus; experiment: Downregulation of Mvd mRNA level in liver of high-fat diet-fed C57BL/6 mouse model at 200 mg/kg, po for 4 weeks by GO analysis; format: functional, organism-based
[16] = system: Mus musculus; experiment: Downregulation of Pcsk9 mRNA level in liver of high-fat diet-fed C57BL/6 mouse model at 200 mg/kg, po for 4 weeks by GO analysis; format: functional, organism-based
[17] = system: Mus musculus; experiment: Downregulation of Ccl2 mRNA level in liver of high-fat diet-fed C57BL/6 mouse model at 200 mg/kg, po for 4 weeks by GO analysis; format: functional, organism-based
[18] = system: Mus musculus; experiment: Downregulation of Syvn1 mRNA level in liver of high-fat diet-fed C57BL/6 mouse model at 200 mg/kg, po for 4 weeks by GO analysis; format: functional, organism-based
[19] = system: Mus musculus; experiment: Downregulation of Sdf2l1 mRNA level in liver of high-fat diet-fed C57BL/6 mouse model at 200 mg/kg, po for 4 weeks by GO analysis; format: functional, organism-based
[20] = system: Mus musculus; experiment: Upregulation of Gadd45a mRNA level in liver of high-fat diet-fed C57BL/6 mouse model at 200 mg/kg, po for 4 weeks by GO analysis; format: functional, organism-based
[21] = system: Mus musculus; experiment: Effect on Ccr2 mRNA level in liver of diet-induced obese C57BL/6 mouse model harboring AMPKalpha LS-/- at 200 mg/kg, po for 4 weeks by GO analysis; format: functional, organism-based
[22] = system: Mus musculus; experiment: Effect on Lepr mRNA level in liver of diet-induced obese C57BL/6 mouse model harboring AMPKalpha LS-/- at 200 mg/kg, po for 4 weeks by GO analysis; format: functional, organism-based
[23] = system: Mus musculus; experiment: Effect on Pcsk9 mRNA level in liver of diet-induced obese C57BL/6 mouse model harboring AMPKalpha LS-/- at 200 mg/kg, po for 4 weeks by GO analysis; format: functional, organism-based
[24] = system: Mus musculus; experiment: Effect on Pparg mRNA level in liver of diet-induced obese C57BL/6 mouse model harboring AMPKalpha LS-/- at 200 mg/kg, po for 4 weeks by GO analysis; format: functional, organism-based
[25] = system: Mus musculus; experiment: Effect on Sdf2l1 mRNA level in liver of diet-induced obese C57BL/6 mouse model harboring AMPKalpha LS-/- at 200 mg/kg, po for 4 weeks by GO analysis; format: functional, organism-based
[26] = system: Mus musculus; experiment: Effect on Ctgf mRNA level in liver of diet-induced obese C57BL/6 mouse model harboring AMPKalpha LS-/- at 200 mg/kg, po for 4 weeks by GO analysis; format: functional, organism-based
[27] = AUC (0 to t) in female Rhesus monkey at 70 mg/kg, po or 7 mg/kg, iv measured for 36 hrs by LC-tandem MS analysis; format: ADME, organism-based, Macaca mulatta; conditions: in vivo
[28] = Cmax in female Rhesus monkey at 70 mg/kg, po or 7 mg/kg, iv measured for 36 hrs by LC-tandem MS analysis; format: ADME, organism-based, Macaca mulatta; conditions: in vivo
[29] = Apparent permeability across apical to basal side in human Caco-2 cells at 2 uM incubated for 2 hrs by LC-MS/MS analysis; format: ADME, cell-based
[30] = Apparent permeability across apical to basal side in human Caco-2 cells at 21 uM incubated for 2 hrs by LC-MS/MS analysis; format: ADME, cell-based
[31] = Stability in human Caco-2 cells assessed as compound remaining at 10 ug/ml measured after 2 hrs by LC-MS/MS analysis; format: ADME, cell-based; conditions: at 10 µg/mL, read-out: Stability
[32] = Stability in human plasma assessed as compound remaining at 1 to 5 uM measured after 30 mins by LC-MS/MS analysis; format: ADME, cell-free; conditions: dose 1-5 µM, read-out: Stability
[33] = Stability in human liver microsomes assessed as hepatic clearance at 1 uM measured for 60 mins in presence of NADPH by LC-MS/MS analysis; format: ADME, Microsome
[34] = molecular target: Voltage-gated inwardly rectifying potassium channel KCNH2 (Homo sapiens, UniProt Q12809); experiment: Inhibition of hERG; format: toxicity
Sequence of Voltage-gated inwardly rectifying potassium channel KCNH2 (Q12809 whole entry): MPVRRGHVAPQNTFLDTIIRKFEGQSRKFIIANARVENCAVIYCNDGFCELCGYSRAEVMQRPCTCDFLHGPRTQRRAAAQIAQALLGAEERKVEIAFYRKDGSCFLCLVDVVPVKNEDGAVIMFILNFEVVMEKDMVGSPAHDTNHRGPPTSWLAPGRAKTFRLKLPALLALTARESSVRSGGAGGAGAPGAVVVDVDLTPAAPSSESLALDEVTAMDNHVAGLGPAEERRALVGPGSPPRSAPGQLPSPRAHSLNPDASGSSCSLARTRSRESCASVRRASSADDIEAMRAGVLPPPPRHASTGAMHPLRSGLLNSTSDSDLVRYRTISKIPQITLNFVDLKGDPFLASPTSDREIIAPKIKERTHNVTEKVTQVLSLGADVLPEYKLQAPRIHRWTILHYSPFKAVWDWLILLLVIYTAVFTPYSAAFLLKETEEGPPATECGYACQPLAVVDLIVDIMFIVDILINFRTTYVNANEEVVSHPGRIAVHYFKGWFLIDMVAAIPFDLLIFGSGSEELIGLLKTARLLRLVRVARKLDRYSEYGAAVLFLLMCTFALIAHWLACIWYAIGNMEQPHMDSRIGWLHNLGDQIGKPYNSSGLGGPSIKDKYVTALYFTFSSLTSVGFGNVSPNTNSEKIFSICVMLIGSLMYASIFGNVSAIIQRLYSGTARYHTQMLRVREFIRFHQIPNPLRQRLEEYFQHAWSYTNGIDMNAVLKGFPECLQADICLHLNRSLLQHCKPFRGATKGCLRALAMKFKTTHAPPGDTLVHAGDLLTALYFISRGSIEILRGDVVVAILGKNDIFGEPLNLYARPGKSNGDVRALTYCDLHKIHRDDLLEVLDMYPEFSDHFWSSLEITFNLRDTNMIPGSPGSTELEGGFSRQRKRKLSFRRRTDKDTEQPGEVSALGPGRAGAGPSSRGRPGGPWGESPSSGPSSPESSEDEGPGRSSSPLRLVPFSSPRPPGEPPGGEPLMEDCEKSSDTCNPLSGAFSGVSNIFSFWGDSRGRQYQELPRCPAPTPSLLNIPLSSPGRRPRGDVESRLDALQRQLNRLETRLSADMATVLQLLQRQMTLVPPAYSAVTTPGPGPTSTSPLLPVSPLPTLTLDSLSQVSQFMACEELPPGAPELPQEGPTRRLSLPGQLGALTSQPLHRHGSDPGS

[35] = Acute toxicity in golden hamster assessed as animal survival at 20 g/Kg, po measured for 14 days; format: organism-based, Mesocricetus auratus; conditions: in vivo, 20000 mg/kg, 336 h, time 14 day
[36] = Acute toxicity in golden hamster administered orally measured for 14 days; design: species or system Mesocricetus auratus; conditions: in vivo, route po, time 14 day
[37] = Acute toxicity in golden hamster assessed as intense toxic response at 20 g/Kg, po measured for 14 days; format: organism-based, Mesocricetus auratus; conditions: in vivo, 20000 mg/kg, 336 h, time 14 day

Work on `CC(=O)OC[C@H]1O[C@@H](n2cnc3c(Nc4cccc(O)c4)ncnc32)[C@H](OC(C)=O)[C@@H]1OC(C)=O` yielded an Activity [1] of 64%, a Kd [2] of 17.9 µM and a Kd [3] of 0.21 µM. For the same compound, the Activity [4] was 22.2%, the Activity [5] was 10.5% and the Activity [6] was 36.2%. For the same compound, the Activity [7] was “inactive”, the Activity [8] was 43.1% and the Activity [9] was 19%. The Activity [10] was 4.83%, the Activity [11] was “Active” and the Activity [12] was “Active”. For the same compound, the Activity [13] was “Active”, the Activity [14] was “Active” and the Activity [15] was “Active”. For the same compound, the Activity [16] was “Active”, the Activity [17] was “Active” and the Activity [18] was “Active”. For the same compound, the Activity [19] was “Active”, the Activity [20] was “Active” and the Activity [21] was “inactive”. The Activity [22] was “inactive”, the Activity [23] was “inactive” and the Activity [24] was “inactive”. For the same compound, the Activity [25] was “inactive”, the Activity [26] was “inactive” and the AUC(0-t) at 36 h [27] was 102 ng·h/mL. The Cmax [28] was 25.9 ng/mL, the Papp A→B at 2 h, 2 µM [29] was 8.6 ×10⁻⁶ cm/s and the Papp A→B at 2 h, 21 µM [30] was 8 ×10⁻⁶ cm/s. The remaining at 2 h, 10 ug/ml [31] was 63%, the remaining at 0.5 h, up to 5 µM [32] was roughly 70% and the CLhep predicted at 1 µM [33] was 19.9 mL/min/kg. For the same compound, the IC50 [34] was greater than 30 µM, the Activity [35] was “Non-Toxic” and the LD50 at 336 h [36] was greater than 20000 mg/kg. The Activity [37] was “Non-Toxic”.
